The term IC50 denotes the concentration at which inhibition is half-maximal. A lower IC50 goes with greater potency.

Molecules are shown by their SMILES.

Among the data in patent US8999982B2, “Pharmaceutically active compounds as Axl inhibitors” (Lead Discovery Center GmbH, priority 2010, dated 2015) are IC50 values, retold here.

For assay [1], the target named is T1, Axl (Homo sapiens (Human), UniProt P30530). The assay is described as follows: Axl binding assay. As for the experimental part:
Binding of the tracer to the kinase is detected using an EU-labeled anti-tag antibody. […] Binding of an inhibitor to the kinase competes for binding with the tracer, resulting in a loss of FRET-signal. At first a compound according to formula (I) was diluted in 20 mM Hepes pH 8.0, 1 mM DTT, 10 mM MgCl2 and 0.01% Brij35.

In assay [2] the target is T1, Axl. Description: Cellular Axl phosphorylation assay. Type of assay: cell-based. As to conditions: HEK293 cells transfected with Axl cDNA, 1 hour incubation. The procedure, abridged: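 Transiently Axl-transfected HEK293 cells, with a vector-only negative control, were treated with compound for 1 hour on the day after medium change. Axl phosphorylation was quantified by mesoscale detection.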

T1 sequence (P30530 26-894): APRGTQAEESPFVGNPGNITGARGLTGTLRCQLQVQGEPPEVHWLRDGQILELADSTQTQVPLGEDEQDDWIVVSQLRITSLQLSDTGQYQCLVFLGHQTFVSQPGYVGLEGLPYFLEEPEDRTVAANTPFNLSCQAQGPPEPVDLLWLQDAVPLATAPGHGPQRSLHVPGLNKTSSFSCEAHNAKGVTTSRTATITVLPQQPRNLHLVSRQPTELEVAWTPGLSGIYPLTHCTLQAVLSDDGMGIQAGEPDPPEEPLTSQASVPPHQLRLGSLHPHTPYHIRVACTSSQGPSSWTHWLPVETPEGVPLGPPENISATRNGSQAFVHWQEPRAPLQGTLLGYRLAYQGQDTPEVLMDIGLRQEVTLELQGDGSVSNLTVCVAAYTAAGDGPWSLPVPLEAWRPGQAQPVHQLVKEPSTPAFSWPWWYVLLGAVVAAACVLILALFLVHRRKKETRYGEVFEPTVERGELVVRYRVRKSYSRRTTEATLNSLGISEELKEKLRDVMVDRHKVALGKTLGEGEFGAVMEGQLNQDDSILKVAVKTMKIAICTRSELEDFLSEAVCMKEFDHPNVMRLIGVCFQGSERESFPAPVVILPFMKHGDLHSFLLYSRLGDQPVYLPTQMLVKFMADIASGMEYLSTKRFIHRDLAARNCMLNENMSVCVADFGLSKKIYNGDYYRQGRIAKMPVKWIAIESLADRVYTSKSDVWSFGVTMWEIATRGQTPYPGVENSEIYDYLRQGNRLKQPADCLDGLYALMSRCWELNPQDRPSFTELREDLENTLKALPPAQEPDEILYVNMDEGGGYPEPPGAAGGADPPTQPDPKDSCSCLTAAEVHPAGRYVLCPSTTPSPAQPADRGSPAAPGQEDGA

Consider `CCOc1cn(-c2ccc(F)c(OC)c2)nc1C(=O)Nc1ccc(Oc2ccnc3cc(OC)c(OC)cc23)c(F)c1` [Example 96, N-(4-((6,7-dimethoxyquinolin-4-yl)oxy)-3-fluorophenyl)-4-ethoxy-1-(4-fluoro-3-methoxyphenyl)-1H-pyrazole-3-carboxamide], for which the IC50 at Axl [1] and at Axl [2] was less than 500 nM each time.

With `CCOc1cn(-c2ccc(F)c(OC)c2)nc1C(=O)Nc1ccc(Oc2ccnc3cc(OC)c(OC)cc23)cn1` [Example 97, N-(5-((6,7-dimethoxyquinolin-4-yl)oxy)pyridin-2-yl)-4-ethoxy-1-(4-fluoro-3-methoxyphenyl)-1H-pyrazole-3-carboxamide], the IC50 at Axl [1] and on Axl [2] was less than 500 nM throughout.

In the case of `CCOc1cn(-c2ccc([N+](=O)[O-])cc2)nc1C(=O)Nc1ccc(Oc2ccnc3cc(OC)c(OC)cc23)cn1` [Example 98, N-(5-((6,7-dimethoxyquinolin-4-yl)oxy)pyridin-2-yl)-4-ethoxy-1-(4-nitrophenyl)-1H-pyrazole-3-carboxamide], the values for the IC50 on Axl [1] and against Axl [2] were 500 to 5000 nM and less than 500 nM, respectively.

Take `CCOc1cn(-c2ccc(N)cc2)nc1C(=O)Nc1ccc(Oc2ccnc3cc(OC)c(OC)cc23)cn1` [Example 99, 1-(4-aminophenyl)-N-(5-((6,7-dimethoxyquinolin-4-yl)oxy)pyridin-2-yl)-4-ethoxy-1H-pyrazole-3-carboxamide]: the IC50 on Axl [1] and at Axl [2] was less than 500 nM in each case.

As to `COc1cc2c(Oc3ccc(NC(=O)c4nc(-c5ccccc5)cs4)nc3)ccnc2cc1OCC1CCNCC1` [Example 101, N-(5-((6-methoxy-7-(piperidin-4-ylmethoxy)quinolin-4-yl)oxy)pyridin-2-yl)-4-phenylthiazole-2-carboxamide], the IC50 at Axl [1] and at Axl [2] was less than 500 nM throughout.

For `COc1cc2c(Oc3ccc(NC(=O)c4nc(Br)cs4)nc3)ccnc2cc1OCC1CCNCC1` [Example 102, 4-bromo-N-(5-((6-methoxy-7-(piperidin-4-ylmethoxy)quinolin-4-yl)oxy)pyridin-2-yl)thiazole-2-carboxamide], the IC50 at Axl [1] and against Axl [2] was less than 500 nM each time.

On to `CCOc1cn(-c2ccc(F)cc2O)nc1C(=O)Nc1ccc(Oc2ccnc3cc(OC)c(OC)cc23)cn1` [Example 104, N-(5-((6,7-dimethoxyquinolin-4-yl)oxy)pyridin-2-yl)-4-ethoxy-1-(4-fluoro-2-hydroxyphenyl)-1H-pyrazole-3-carboxamide], for which the IC50 on Axl [1] and against Axl [2] was less than 500 nM throughout.

As to `CCOc1cn(-c2cccnc2)nc1C(=O)Nc1ccc(Oc2ccnc3cc(OC)c(OC)cc23)c(F)c1` [Example 105, N-(4-((6,7-dimethoxyquinolin-4-yl)oxy)-3-fluorophenyl)-4-ethoxy-1-(pyridin-3-yl)-1H-pyrazole-3-carboxamide], the IC50 at Axl [1] and on Axl [2] was less than 500 nM throughout.
